In paper PMC6235531, “Analyzing Protein Architectures and Protein-Ligand Complexes by Integrative Structural Mass Spectrometry” (Journal of Visualized Experiments : JoVE, 2018):
Structures can show the parent of a compound that is named as a salt.

Legend:
HerA = target: T1, HerA (Saccharolobus solfataricus, UniProt Q97WG8); experiment: native nESI mass spectrometry titration; type: binding; conditions: increasing ATP-γ-S; no NurA; 200 mM ammonium acetate
T1 construct: purified HerA without NurA, hexamer and heptamer
T1 sequence (Q97WG8 1-500): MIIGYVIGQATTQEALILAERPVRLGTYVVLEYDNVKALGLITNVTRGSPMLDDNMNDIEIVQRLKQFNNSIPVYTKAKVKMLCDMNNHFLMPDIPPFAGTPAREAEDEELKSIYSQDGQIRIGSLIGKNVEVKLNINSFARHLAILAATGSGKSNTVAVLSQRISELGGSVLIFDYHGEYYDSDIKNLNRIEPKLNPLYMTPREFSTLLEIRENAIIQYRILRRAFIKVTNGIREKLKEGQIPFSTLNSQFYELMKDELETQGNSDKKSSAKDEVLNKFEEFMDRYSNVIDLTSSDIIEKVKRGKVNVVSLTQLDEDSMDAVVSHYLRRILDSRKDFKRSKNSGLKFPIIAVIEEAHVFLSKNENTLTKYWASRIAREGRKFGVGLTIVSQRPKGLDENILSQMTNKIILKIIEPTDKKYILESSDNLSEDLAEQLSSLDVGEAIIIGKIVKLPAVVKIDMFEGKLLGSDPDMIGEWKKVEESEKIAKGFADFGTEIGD

HerA-NurA = target: T2, HerA-NurA (Saccharolobus solfataricus, UniProt Q97WG8); experiment: native nESI mass spectrometry titration; type: binding; conditions: 5 uM protein, 0-1 mM ligand, 2 mM MgCl2, 25 °C 1 h, then 200 mM ammonium acetate pH 7; also tested with 25 bp dsDNA
T2 construct: purified HerA hexamer with NurA dimer; with DNA double-strand break repair nuclease NurA
T2 sequence (Q97WH1 whole entry, one chain of several, further chain): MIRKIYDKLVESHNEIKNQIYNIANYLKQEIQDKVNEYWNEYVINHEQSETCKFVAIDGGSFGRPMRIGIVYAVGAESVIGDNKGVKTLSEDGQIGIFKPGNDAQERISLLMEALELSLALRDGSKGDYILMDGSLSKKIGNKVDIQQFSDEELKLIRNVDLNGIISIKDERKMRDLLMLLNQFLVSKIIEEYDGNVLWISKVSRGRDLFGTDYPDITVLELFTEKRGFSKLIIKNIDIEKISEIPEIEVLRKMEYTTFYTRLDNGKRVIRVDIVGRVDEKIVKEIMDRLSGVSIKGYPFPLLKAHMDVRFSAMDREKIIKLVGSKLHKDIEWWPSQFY

SMILES	native nESI mass spectrometry titration (HerA)	native nESI mass spectrometry titration (HerA-NurA)
Nc1ncnc2c1ncn2[C@@H]1O[C@H](COP(=O)(O)OP(=O)(O)OP(O)(O)=S)[C@@H](O)[C@H]1O [ATP-γ-S, adenosine 5′-O-(3-thiotriphosphate), tetralithium salt]	Number of ATP-γ-S molecules bound is shown on the spectra	ATP-γ-S and ADP titrations experiments determined the pairwise nucleotide binding to HerA-NurA alone
Nc1ncnc2c1ncn2[C@@H]1O[C@H](COP(=O)(O)OP(=O)(O)O)[C@@H](O)[C@H]1O [ADP]	–	ATP-γ-S and ADP titrations experiments determined the pairwise nucleotide binding to HerA-NurA alone
